Experimental data published in ChEMBL document CHEMBL1141144, “Discovery and structure-activity relationship of 3-aryl-5-aryl-1,2,4-oxadiazoles as a new series of apoptosis inducers and potential anticancer agents” (J Med Chem, 2005).

Tests used:
Type in all cases: functional
[1] = tested on: NCI-H1299; assay: Growth inhibitory activity against H1299 cells done for 48 h at 37 degree C with compound; conditions: Homo sapiens, NCI-H1299, 48 h
[2] = tested on: T47D; assay: Growth inhibitory activity aganist T47D cells done for 48 hr at 37 degree C with compound; conditions: Homo sapiens
[3] = tested on: DLD-1; assay: Growth inhibitory activity against DLD-1 cells done for 48 h at 37 degree C with compound; conditions: Homo sapiens, DLD-1, 48 h
[4] = species on record: Mus musculus; assay: Inhibition of tumor growth in mice with MX-1 tumor after treatment in combination with paclitaxel

| SMILES | GI50 [1] [nM] | GI50 [2] [nM] | GI50 [3] [nM] | Inhibition [4] [%] |
| --- | --- | --- | --- | --- |
| Clc1ccc(-c2noc(-c3occc3Br)n2)cc1 | > 10000 | 120 | 510 | – |
| FC(F)(F)c1ccc(-c2noc(-c3sccc3Cl)n2)nc1 | > 10000 | 350 | 930 | – |
| FC(F)(F)c1ccc(-c2noc(-c3occc3Br)n2)cc1 | > 10000 | 320 | 130 | – |
| Cc1ccc(-c2noc(-c3sccc3Cl)n2)cc1 | > 10000 | 2200 | 850 | – |
| FC(F)(F)c1ccc(-c2noc(-c3sccc3Cl)n2)cc1 | > 10000 | 220 | 770 | – |
| Clc1ccc(-c2noc(-c3sccc3Cl)n2)cc1 | > 10000 | 190 | 400 | – |
| FC(F)(F)c1ccc(-c2noc(-c3occc3Cl)n2)cc1 | > 10000 | 170 | 350 | – |
| Clc1ccc(-c2noc(-c3sccc3Br)n2)cc1 | > 10000 | 570 | 580 | – |
| COc1ccc(-c2noc(-c3sccc3Cl)n2)cc1 | > 10000 | 520 | 930 | – |
| Clc1ccc(-c2noc(-c3occc3Cl)n2)cc1 | > 10000 | 120 | 510 | 83 |
| Clc1ccc(-c2noc(-c3occc3Br)n2)nc1 | > 10000 | 380 | 430 | – |
| Clc1ccc(-c2noc(-c3sccc3Cl)n2)nc1 | > 10000 | 200 | 800 | – |
| Clc1ccc(-c2noc(-c3occc3Cl)n2)nc1 | > 10000 | 13000 | 600 | – |
